In US11965219B2, “Process and apparatus for reduction in microbial growth in solutions of sugars extracted from waste materials” (UNIVERSITY OF LEEDS, priority 2018, dated 2024):

Test system: microbial growth in solutions of sugar
Experiment: Microbial contamination control procedure: dissolved oxygen and pH monitoring of solutions of sugars after adding a sterilisation agent
Protocol: The process described is based upon the Fiberight industrial scale process, modified for a 1 litre reaction vessel. The amount of organic substrate used in the process is dependent on the required total solids (TS) content of the process. Typically, TS will be between 5-25%. TS is calculated using the required reaction mass and the solids content of the organic substrate, which is typically between 10-70%. (For a reaction mass of 1 kg, with a required TS of 8% (w/w), using organic substrate with a solids content of 32% (w/w), the amount of organic substrate needed for the process is 250 g). The organic substrate is sterilised in an autoclave at 125° C. for 1 hour immediately prior to use.
The reaction vessel is sterilised prior to use by filling with […] and stirring for 1 hour. The ethanol is then drained and the heating jacket set to 50° C. prior to addition of the reaction components (water, organic substrate, and enzyme).
The organic substrate is added to a preheated reaction vessel (50° C.) in one portion followed by sterilised water (the mass of water required=total reaction mass−mass of organic substrate) and stirred at between 200-600 RPM, depending on TS (higher TS requires a higher RPM to ensure thorough mixing). […] DO readings are taken throughout the process and are typically between 3-8 mg/L if no contamination is present. […] Typically this stops after T=3 hours and maintains linear readings. If contamination occurs the DO reading can drop to 0 mg/L, which typically happens between T=5-8 hours. […]
Several sterilisation agents have been tested to determine their effectiveness in controlling microbial growth in solutions of sugar. The sterilisation agents were either introduced at T=0 or at the point that microbial growth is observed, which can be measured by the DO sensor. Typically, contamination can be said to occur when the DO reading starts to drop exponentially, eventually reaching 0 mg/L if no sterilisation agent is added. In these tests, software was used to monitor the DO readings and trigger the addition of an antimicrobial. […]

[O][Cl+][O-] [chlorine dioxide]
dissolved oxygen and pH levels / microbial growth (0.05 wt % added at T=5 hrs 45 mins, T=50 hrs 30 mins and T=73 hrs 30 mins, FIG. 7): stabilise dissolved oxygen and pH levels, thereby preventing further microbial growth | dissolved oxygen and pH levels / microbial growth (0.35 wt % added at T=8 hrs 45 mins in a single aliquot, FIG. 6): stabilise dissolved oxygen and pH levels, thereby preventing further microbial growth | pH drop (evidence of lactic acid production) (added in response to the drop in dissolved oxygen, FIGS. 6 and 7): prevented
